Measured values published in patent publication US7759331B2, “Pyridine-containing macroheterococylic compounds as kinase inhibitors” (Janssen Pharmaceutica NV, priority 2006, dated 2010).
Values joined by “and” are separate entries in the source; they are usually repeats but may differ in a detail not shown here. Identical values can stand only once.

biological target: GSK3β(h) (Homo sapiens, UniProt P49841); assay: Glycogen Synthase Kinase-3 Assay; format: biochemical; settings: assay run three times for each compound; each run's value listed
Method: Compounds were tested for the ability to inhibit GSK-3β protein. Briefly, in a final reaction volume of 25 μL, GSK-3β (h) (5-10 mU) was incubated with 8 mM MOPS pH 7.0, 0.2 mM EDTA, 20 μM […](p)EDEEE (phospho GS2 peptide), 10 mM Mg Acetate and [γ-^33P-ATP] (specific activity approx. 500 cpm/pmol, concentration as required). The reaction was initiated by the addition of the MgATP mix. After incubation for 40 minutes at room temperature, the reaction was stopped by the addition of 5 μL of a 3% phosphoric acid solution. 10 μL of the reaction was then spotted onto a P30 filtermat and washed three times for 5 minutes in 50 mM phosphoric acid and once in methanol prior to drying and scintillation counting.
The GSK-3β assay was run three times for each compound.

Sequence of GSK3β(h) (P49841 whole entry): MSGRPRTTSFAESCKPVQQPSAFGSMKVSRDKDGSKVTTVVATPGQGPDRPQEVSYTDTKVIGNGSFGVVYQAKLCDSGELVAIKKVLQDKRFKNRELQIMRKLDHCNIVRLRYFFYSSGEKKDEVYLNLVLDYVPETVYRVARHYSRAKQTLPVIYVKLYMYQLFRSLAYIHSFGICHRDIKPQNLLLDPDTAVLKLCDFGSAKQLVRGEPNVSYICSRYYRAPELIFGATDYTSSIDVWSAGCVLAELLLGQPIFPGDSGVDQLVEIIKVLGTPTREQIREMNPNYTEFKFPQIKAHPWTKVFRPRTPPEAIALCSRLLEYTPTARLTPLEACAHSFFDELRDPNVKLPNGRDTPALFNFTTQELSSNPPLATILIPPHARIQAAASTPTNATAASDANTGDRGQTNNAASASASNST

| SMILES | IC50 |
| --- | --- |
| CN(C)c1nc2ccc1CCCn1cc(c3ccccc31)C1=C(C(=O)NC1=O)c1cn(c3ccccc13)CCC2 [Cpd 3, 31-(dimethylamino)-5,15,25,30-tetraazaheptacyclo[27.2.2.1^5,12.1^18,25.0^6,11.0^13,17.0^19,24]pentatriaconta-1(31),6,8,10,12(35),13(17),18(34),19,21,23,29,32-dodecaene-14,16-dione] | 0.0055 µM and 0.0529 µM and 0.0521 µM |
| Cc1ccc(-c2cc3cc(n2)CCCn2cc(c4ccccc42)C2=C(C(=O)NC2=O)c2cn(c4ccccc24)CCC3)cc1 [Cpd 4, 20-(4-methylphenyl)-4,14,19,26-tetraazaheptacyclo[24.6.1.1^7,14.1^18,22.0^2,6.0^8,13.0^27,32]pentatriaconta-1(33),2(6),7(35),8,10,12,18(34),19,21,27,29,31-dodecaene-3,5-dione] | 0.01 µM and 0.021 µM and 0.0535 µM |
| O=C1NC(=O)C2=C1c1cn(c3ccccc13)CCCCc1ccc(c(N3CCCC3)n1)CCCCn1cc2c2ccccc21 [Cpd 5, 33-pyrrolidin-1-yl-6,16,26,32-tetraazaheptacyclo[29.2.2.1^6,13.1^19,26.0^7,12.0^14,18.0^20,25]heptatriaconta-1(33),7,9,11,13(37),14(18),19(36),20,22,24,31,34-dodecaene-15,17-dione] | 0.024 µM and 0.0193 µM and 0.0298 µM |
